Among the test systems are CCRF-CEM leukemia; MDA-N; SNB-75 CNS; U251 CNS; NCI-H226 lung; NCI/ADR-RES ovarian; MOLT-4 leukemia; SR leukemia; RPMI-8226 leukemia; SF-539 CNS; HCT-116 colon; UO-31 renal; SK-MEL-28 melanoma; EKVX NSCLC; MDA-MB-231 breast; SK-MEL-2 melanoma; HCT-15 colon; T-47D breast.
What all share (assay): inhibition of tumour cell growth, NCI panel, 48 h

Structures are written as SMILES.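 Five concentrations, 48 hours, 96-well plates. Definition used: TGI = concentration required for complete inhibition of growth.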 Some results are limits rather than exact numbers.

As for `COc1nc2c(c(=O)n1C)N=C(c1ccccc1)[C@H](C(CC(=O)c1ccccc1)c1ccccc1)C(c1ccccc1)N2` (stereo partly drawn), the TGI in the assay on CCRF-CEM leukemia was more than 100 µM; in the assay on MDA-N it was more than 100 µM; with SNB-75 CNS, 44.5 µM; with U251 CNS it was more than 100 µM; in the assay with NCI-H226 lung it was more than 100 µM; in the assay on NCI/ADR-RES ovarian, more than 100 µM. Further, the TGI with MOLT-4 leukemia was 57.1 µM; in the assay on SR leukemia, more than 100 µM; with RPMI-8226 leukemia, more than 100 µM; with SF-539 CNS, more than 100 µM; in the assay with HCT-116 colon it was more than 100 µM; in the assay with UO-31 renal, more than 100 µM. For the same molecule, the TGI with SK-MEL-28 melanoma is more than 100 µM; in the assay with EKVX NSCLC, more than 100 µM; in the assay on MDA-MB-231 breast, 78.7 µM; with SK-MEL-2 melanoma, more than 100 µM.

For the molecule `O=S(=O)(SC1=NCCN1)c1cccc2ccccc12`, the TGI is more than 100 µM in the assay on CCRF-CEM leukemia; 39.4 µM with MDA-N; 46 µM in the assay on SNB-75 CNS; more than 100 µM in the assay with U251 CNS; 73 µM in the assay with NCI-H226 lung; more than 100 µM in the assay with NCI/ADR-RES ovarian. For the same molecule, the TGI in the assay on MOLT-4 leukemia was 95.9 µM; in the assay with SR leukemia, more than 10 µM; in the assay on RPMI-8226 leukemia, 66.6 µM; in the assay on SF-539 CNS, 49.6 µM; in the assay on HCT-116 colon it was more than 100 µM; with UO-31 renal, more than 100 µM. In addition, the TGI in the assay with SK-MEL-28 melanoma is more than 100 µM; in the assay on EKVX NSCLC it was more than 100 µM; with MDA-MB-231 breast, 45.6 µM; in the assay with HCT-15 colon it was more than 100 µM; in the assay with SK-MEL-2 melanoma, more than 100 µM.

As to `c1ccc(C(=NCCC2CNc3ccccc32)c2ccccc2)cc1` (stereo not drawn), the TGI in the assay with CCRF-CEM leukemia, with MDA-N, in the assay with U251 CNS, in the assay on NCI/ADR-RES ovarian, in the assay with MOLT-4 leukemia and in the assay on SR leukemia was more than 100 µM each time. Besides, the TGI in the assay on RPMI-8226 leukemia, with HCT-116 colon, in the assay on UO-31 renal, in the assay on SK-MEL-28 melanoma, with EKVX NSCLC and in the assay with MDA-MB-231 breast was more than 100 µM throughout. Also, the TGI in the assay on HCT-15 colon and with SK-MEL-2 melanoma was more than 100 µM throughout.

With `O=C1NNC2NC(=O)C3(NN2C1=O)c1ccccc1-c1ccccc13` (stereo not drawn), the TGI with CCRF-CEM leukemia, with MDA-N, with SNB-75 CNS, in the assay with U251 CNS, with NCI-H226 lung and with NCI/ADR-RES ovarian was more than 100 µM each time. The TGI with SR leukemia, with SF-539 CNS, in the assay with HCT-116 colon, in the assay on UO-31 renal, with EKVX NSCLC and in the assay with MDA-MB-231 breast was more than 100 µM each time. The TGI in the assay on HCT-15 colon and in the assay on SK-MEL-2 melanoma was more than 100 µM throughout.

Turning to `O=C(NC(Cc1cnc[nH]1)C(=O)N1CCCC1)C1CCCC1` (stereo not drawn), the TGI with CCRF-CEM leukemia, in the assay with MDA-N, in the assay with SNB-75 CNS, with U251 CNS, with NCI-H226 lung and in the assay with NCI/ADR-RES ovarian was more than 100 µM each time. For the same molecule, the TGI in the assay with MOLT-4 leukemia, in the assay with SR leukemia, in the assay with RPMI-8226 leukemia, with HCT-116 colon, in the assay with UO-31 renal and in the assay on SK-MEL-28 melanoma was more than 100 µM throughout. Also, the TGI in the assay with EKVX NSCLC, with MDA-MB-231 breast and in the assay with HCT-15 colon was more than 100 µM in each case.

Regarding `O=C(O)[C@H](Cc1ccccc1)NCCN1CCC[C@H]1C(=O)O`, the TGI in the assay with MDA-N, with U251 CNS, with T-47D breast, in the assay on NCI/ADR-RES ovarian, in the assay on MOLT-4 leukemia and with RPMI-8226 leukemia was more than 100 µM in each case. In addition, the TGI with SF-539 CNS, in the assay on HCT-116 colon, in the assay with UO-31 renal, in the assay with SK-MEL-28 melanoma, in the assay with MDA-MB-231 breast and with HCT-15 colon was more than 100 µM in each case. The TGI with SK-MEL-2 melanoma was more than 100 µM.

As to `CN1C(=O)C(O)CC1c1ccccc1C(F)(F)F` (stereo not drawn), the TGI with CCRF-CEM leukemia, in the assay with MDA-N, with SNB-75 CNS, in the assay with U251 CNS, in the assay with NCI-H226 lung and in the assay with NCI/ADR-RES ovarian was more than 100 µM in each case. The TGI in the assay with MOLT-4 leukemia, in the assay with RPMI-8226 leukemia, in the assay with SF-539 CNS, in the assay with HCT-116 colon, in the assay with UO-31 renal and with SK-MEL-28 melanoma was more than 100 µM in each case. Moreover, the TGI in the assay with EKVX NSCLC, in the assay with MDA-MB-231 breast, in the assay with HCT-15 colon and in the assay with SK-MEL-2 melanoma was more than 100 µM each time.

For the molecule `CC(=O)O[C@@]12CO[C@@H]1C[C@@H](O)[C@@]1(C)C(=O)[C@H](O)C3=C(C)[C@@H](OC(=O)[C@H](O)[C@@H](NC(=O)c4ccccc4)c4ccccc4)C[C@@](O)([C@@H](OC(=O)c4ccccc4)C12)C3(C)C` (stereo partly drawn), the TGI in the assay with CCRF-CEM leukemia was more than 67.5 µM; in the assay with SNB-75 CNS it was 0.0815 µM; with U251 CNS, more than 100 µM; in the assay on T-47D breast, more than 100 µM; in the assay with NCI-H226 lung, 81.9 µM; in the assay with NCI/ADR-RES ovarian, 74.4 µM. The TGI in the assay on MOLT-4 leukemia is more than 42.5 µM; with SR leukemia, more than 50.1 µM; in the assay with RPMI-8226 leukemia, more than 100 µM; in the assay on SF-539 CNS, 0.0579 µM; in the assay on HCT-116 colon, 0.152 µM; in the assay on UO-31 renal it was more than 78.8 µM. Besides, the TGI is more than 100 µM with SK-MEL-28 melanoma; more than 100 µM with EKVX NSCLC; 43.8 µM in the assay on MDA-MB-231 breast; more than 100 µM with HCT-15 colon; 0.887 µM with SK-MEL-2 melanoma.

Turning to `CCNC12CCC(C1)C(C)(C)C2=O` (stereo not drawn), the TGI in the assay with CCRF-CEM leukemia, with MDA-N, with SNB-75 CNS, in the assay with U251 CNS, with T-47D breast and in the assay on NCI-H226 lung was more than 100 µM throughout. The TGI with NCI/ADR-RES ovarian, with MOLT-4 leukemia, in the assay with SR leukemia, in the assay on RPMI-8226 leukemia, in the assay on HCT-116 colon and in the assay with UO-31 renal was more than 100 µM in each case. For the same molecule, the TGI with SK-MEL-28 melanoma, in the assay with EKVX NSCLC, in the assay with HCT-15 colon and in the assay on SK-MEL-2 melanoma was more than 100 µM each time.

The record behind these values is PubChem BioAssay (NCI).
